Data: PMC6736568, “Discovery of Novel Anti-cryptosporidial Activities From Natural Products by in vitro High-Throughput Phenotypic Screening” (Frontiers in Microbiology, 2019)
Counter-ions that a name gives are not always drawn. Like-named read-outs stand apart in the source and are kept apart here.

Experiments:
in vitro = details: for cytotoxicity at 41 h, 10 µM: human
Cryptosporidium parvum = assay: qRT-PCR assay of the growth of C. parvum in vitro in HCT-8 host cells (primary and secondary screening, EC50); type: cell-based; details: Cryptosporidium parvum, HCT-8; for inhibition at 10 µM: primary screening at 10 uM, read-out: Inhibition (%); for inhibition at 3.3 µM: secondary screening at 3.3 uM, read-out: % Inhibition (3.3 uM)
[1] = primary screening at 10 uM, treated vs control

SMILES	cytotoxicity at 41 h, 10 µM (in vitro) [%]	inhibition at 10 µM (Cryptosporidium parvum) [%]	Hs18S ΔCT (HCT-8 host cells (Hs18S); human, 41 h, 10 μM)	cytotoxicity at 10 µM (in vitro) [%]	Hs18S ΔCT (HCT-8 host cells (Hs18S); [1])	inhibition at 3.3 µM (Cryptosporidium parvum) [%]
COc1c2c(cc3occ(-c4ccc5c(c4)OCO5)c(=O)c13)OC(C)(C)C=C2 [METHYL ROBUSTONE]	-5.4	-44.6	-0.08			
CC[C@H](C)C(=O)O[C@H]1CCC=C2C=C[C@H](C)[C@H](CC[C@@H]3C[C@@H](O)CC(=O)O3)[C@H]21 [MEVASTATIN]	14.4	24	0.22			
COC(=O)C[C@H]1C(C)(C)C(=O)[C@@H]2CC3=C4CC(=O)O[C@@H](c5ccoc5)[C@]4(C)CC[C@@H]3[C@@]1(C)C2=O [MEXICANOLIDE]	-12.3	31.5	-0.17			
NC(Cn1ccc(=O)c(O)c1)C(=O)O (centres unmarked) [MIMOSINE]	-0.4	-22	-0.01			
C[C@H]1C(=O)O[C@@H]2CCN3CC=C(COC(=O)[C@](C)(O)[C@]1(C)O)[C@H]23 [MONOCROTALINE]		12		9.5	0.14	
O=c1c(O)c(-c2ccc(O)cc2O)oc2cc(O)cc(O)c12 [MORIN]		32.3		-15.6	-0.21	
O=C(O)[C@@H](O)[C@H](O)[C@H](O)[C@@H](O)C(=O)O [MUCIC ACID]	-13.8	-14.3	-0.19			
COc1ccc2c(c1)O[C@@H]1COc3cc(OC)c(OC)cc3[C@@H]1C2=O [MUNDOSERONE]		13.7		11.4	0.17	
COc1c(-c2coc3cc4c(cc3c2=O)CC(OC(C)=O)C(C)(C)O4)ccc2c1C=CC(C)(C)O2 (centres unmarked) [MUNDULONE ACETATE]	22.6	-3.19	0.37			
COc1c(-c2coc3cc4c(cc3c2=O)CC(O)C(C)(C)O4)ccc2c1C=CC(C)(C)O2 (centres unmarked) [MUNDULONE]	14.4	61.8	0.22			-43
C/C(=C\C(=O)OCCCCCCCCC(=O)O)C[C@@H]1OC[C@H](C[C@@H]2O[C@H]2[C@@H](C)[C@H](C)O)[C@@H](O)[C@H]1O [MUPIROCIN]	5.8	45.6	0.09			
CC1=CC2C(CC1=O)C(C)=CCC2C(C)C (centres unmarked) [MUUROLLADIE-3-ONE]	-1.7	-7.55	-0.02			
COc1c(C)c2c(c(O)c1C/C=C(\C)CCC(=O)O)C(=O)OC2 [MYCOPHENOLIC ACID]	51.1	44.4	1.03			
c1cncc(C2=NCCC2)c1 [MYOSMINE]		-17.6		4.5	0.07	
C=CCN1CC[C@]23c4c5ccc(O)c4O[C@H]2C(=O)CC[C@@]3(O)[C@H]1C5 [NALOXONE HYDROCHLORIDE]		21.9		12.7	0.20	
O=C1C[C@@H](c2ccc(O)cc2)Oc2cc(O)cc(O)c21 [NARINGENIN]	-17.3	47.6			-0.23	
C[C@@H]1O[C@@H](O[C@H]2[C@H](Oc3cc(O)c4c(c3)O[C@H](c3ccc(O)cc3)CC4=O)O[C@H](CO)[C@@H](O)[C@@H]2O)[C@H](O)[C@H](O)[C@H]1O [NARINGIN]	10.4	2.06	0.16			
CC(C)=CCC/C(C)=C\CO [NEROL]	25.8	-20.6	0.43			
NC(=O)c1cccnc1 [NIACINAMIDE]	-3.6	-9.59	-0.05			
O=C(O)c1cccnc1 [NIACIN]	5.3	-6.7	0.08			
COc1ccc(-c2cc(=O)c3c(OC)c(OC)c(OC)c(OC)c3o2)cc1OC [NOBILETIN]	16.2	94.6	0.26			-25
CCCCC[C@H](CC(=O)O)C(=O)O [NONIC ACID]	3.9	-17.1	0.06			
Cc1cc(O)c(C=O)c2c1C(=O)Oc1c(C)c(O)c3c(c1O2)C(O)OC3=O (centres unmarked) [NORSTICTIC ACID]	-13.4	-20.8	-0.18			
COc1ccc2c(c1OC)C(=O)O[C@@H]2[C@H]1c2c(cc3c(c2OC)OCO3)CCN1C [NOSCAPINE HYDROCHLORIDE]	18.9	-51.6	0.30			
CO[C@@H]1[C@@H](OC(N)=O)[C@@H](O)[C@H](Oc2ccc3c(O)c(NC(=O)c4ccc(O)c(CC=C(C)C)c4)c(=O)oc3c2C)OC1(C)C [NOVOBIOCIN SODIUM]	6.5	-13.6	0.10			
